In patent US10952992B2, “Methods of treating intraocular pressure with activators of Tie-2” (Aerpio Pharmaceuticals, Inc., priority 2015, dated 2021):
Values joined by “and” are separate entries in the source; they are usually repeats but may differ in a detail not shown here. Equal entries are not always repeated.

How the values were obtained:
[1] = Example 2 aqueous humor concentrations; format: in vivo, male New Zealand White rabbits; conditions: for Average Peak Concentration, Aqueous Humor: suspension
Description: (§1) To measure the concentration of Compound 1 in plasma and ocular tissues following topical ocular, subcutaneous, and intravitreal administration, New Zealand White rabbits were administered Compound 1, and plasma and ocular samples were collected at pre-determined time points. Compound 1 formulations were prepared fresh on each day of dosing.
(§2) Ocular tissue samples from both eyes of each animal were collected and weights were recorded. Plasma and ocular tissue sample concentrations of Compound 1 were determined by LC-MS/MS.
(§3) Animals were anesthetized for ocular (topical) and intravitreal dosing following the 12IA7 IACUC protocol. Each rabbit received a bolus dose of test formulation either via topical ocular administration 3 times daily on Days 1 and 2 (at 0, 6, and 12 hours), and once on Day 3 (at 0 hours) into both eyes; via intravitreal administration into both eyes once on Day 1 (at 0 hours); or via subcutaneous administration 2 times daily on Days 1 and 2 (at 0 and 8 hours) and once daily on Day 3 (at 0 hours). Doses were given within an approximately 1 hour window each day where applicable.
On Day 1, for intravitreal administration, or on Day 3, for topical ocular and subcutaneous administration, at the appropriate ocular tissue collection time points, animals were euthanized and both eyes were enucleated immediately. Following enucleation, each eye was rinsed with phosphate-buffered saline. Ocular tissue samples from both eyes of each animal were collected at predetermined time points and weights were recorded. All the samples were frozen immediately on dry ice, and stored at −60° C. to −80° C. pending bioanalysis.
(§4) An LC-MS/MS method was developed for the determination of Compound 1 in rabbit aqueous tissues (plasma, aqueous and vitreous humor) and solid ocular tissue samples. A pre-study standard curve was analyzed to determine the specificity, range, and lower limit of quantitation of the method. Plasma and tissue homogenate study samples were extracted and analyzed. All the samples were treated identically to the standards.
(§5) One eight-point standard curve was used in each analytical batch. To be accepted, each batch must have had at least five of eight standards with accuracy within ±20% of nominal, except at the lower limit of quantification (LLOQ), where ±25% was acceptable.

[2] = Example 2 plasma concentrations and pharmacokinetics after topical ocular, subcutaneous, intravitreal administration; format: in vivo, male New Zealand White rabbits
Description: as §1, §2
New Zealand White rabbits weighing 2.5 to 3.5 kg were used on this study. Rabbits were housed one per cage. Animals were not fasted and only healthy animals with no ocular illness were used. Two rabbits per group were sacrificed at each of four ocular tissue sampling time points for a total of eight rabbits per group.
as §3
Each blood sample was collected on Day 3 post dose at pre-determined time points from the rabbits via an ear vessel and placed into chilled polypropylene tubes containing sodium heparin as an anticoagulant. Samples were spun by centrifuge at 4° C. and 3,000× g for 5 minutes. Samples were maintained chilled throughout processing. Each plasma sample was placed on dry ice and stored in a freezer at −60° C. to −80° C. pending bioanalysis.
as §4, §5
Pharmacokinetic parameters were calculated from the time course of the plasma concentration. The maximum plasma concentration (Cmax) and time to the maximum plasma drug concentration (Tmax) were the observed values for each concentration-time profiles. The area under the plasma drug concentration-time curve (AUClast, with last being from time 0 to the last quantifiable point) was calculated using the trapezoidal formula. The mean residence time MRTlast was calculated as a ratio of AUMClast (area under the first movement curve) to AUClast.

[3] = Group 3 (subcutaneous 5 mg/kg/dose, suspension), 2.0 hr
[4] = Group 3 (subcutaneous 5 mg/kg/dose, suspension), 4.0 hr
[5] = Group 5 (intravitreal 2.5 mg/eye, suspension), 6.0 hr
[6] = Group 5 (intravitreal 2.5 mg/eye, suspension), 24 hr
[7] = Group 5 (intravitreal 2.5 mg/eye, suspension), 72 hr
[8] = Group 3: subcutaneous 5 mg/kg/dose, 40 mM phosphate buffer pH 4.0 + 2.5% dextrose suspension
[9] = Group 3: subcutaneous 5 mg/kg/dose, 40 mM phosphate buffer pH 4.0 + 2.5% dextrose suspension, 0.25 hr
[10] = Group 3: subcutaneous 5 mg/kg/dose, 40 mM phosphate buffer pH 4.0 + 2.5% dextrose suspension, 0.50 hr
[11] = Group 3: subcutaneous 5 mg/kg/dose, 40 mM phosphate buffer pH 4.0 + 2.5% dextrose suspension, 1.0 hr
[12] = Group 3: subcutaneous 5 mg/kg/dose, 40 mM phosphate buffer pH 4.0 + 2.5% dextrose suspension, 2.0 hr
[13] = Group 3: subcutaneous 5 mg/kg/dose, 40 mM phosphate buffer pH 4.0 + 2.5% dextrose suspension, 4.0 hr
[14] = Group 3: subcutaneous suspension, normalized by nominal dose 5 mg/kg
[15] = Group 5: intravitreal 2.5 mg/eye (~1.54 mg/kg), 40 mM phosphate buffer pH 4.0 suspension
[16] = Group 5: intravitreal 2.5 mg/eye (~1.54 mg/kg), 40 mM phosphate buffer pH 4.0 suspension, 1.0 hr
[17] = Group 5: intravitreal 2.5 mg/eye (~1.54 mg/kg), 40 mM phosphate buffer pH 4.0 suspension, 3.0 hr
[18] = Group 5: intravitreal 2.5 mg/eye (~1.54 mg/kg), 40 mM phosphate buffer pH 4.0 suspension, 6.0 hr
[19] = Group 5: intravitreal 2.5 mg/eye (~1.54 mg/kg), 40 mM phosphate buffer pH 4.0 suspension, 24.0 hr
[20] = Group 5: intravitreal 2.5 mg/eye (~1.54 mg/kg), 40 mM phosphate buffer pH 4.0 suspension, 48.0 hr
[21] = Group 5: intravitreal 2.5 mg/eye (~1.54 mg/kg), 40 mM phosphate buffer pH 4.0 suspension, 72.0 hr
[22] = Group 5: intravitreal suspension, normalized by nominal dose 1.54 mg/kg

COC(=O)N[C@@H](Cc1ccccc1)C(=O)N[C@@H](Cc1ccc(NS(=O)(=O)O)cc1)c1csc(-c2cccs2)n1 [Compound 1 free acid]
aqueous humor Average Conc. ([1]; Group 3 (subcutaneous 5 mg/kg/dose, suspension), 0.5 hr): 1.21 ng/g
aqueous humor Average Conc. ([1]; Group 3 (subcutaneous 5 mg/kg/dose, suspension), 1.0 hr): 0.41 ng/g
aqueous humor Average Conc. [1, 3]: 0.66 ng/g
aqueous humor Conc. OD [1, 3]: 0.601 ng/mL
aqueous humor Average Conc. [1, 4]: 0.51 ng/g
aqueous humor Conc. OS [1, 4]: 0.229 ng/mL
Average Peak Concentration, Aqueous Humor ([1]; Group 3: subcutaneous 5 mg/kg/dose): 1.21 ng/g
aqueous humor Average Conc. [1, 5]: 26400 ng/g
aqueous humor Conc. OD [1, 5]: 34200 ng/mL and 23400 ng/mL
aqueous humor Average Conc. [1, 6]: 4270 ng/g
aqueous humor Conc. OD [1, 6]: 3890 ng/mL and 5540 ng/mL
aqueous humor Average Conc. ([1]; Group 5 (intravitreal 2.5 mg/eye, suspension), 48 hr): 915 ng/g
aqueous humor Average Conc. [1, 7]: 120 ng/g
aqueous humor Conc. OD [1, 7]: 145 ng/mL and 94.1 ng/mL
Average Peak Concentration, Aqueous Humor ([1]; Group 5: intravitreal 1.54 mg/kg/dose): 26400 ng/g
plasma AUClast (± SE) [2, 8]: 864 ± 69 ng·h/mL and 864 ng·h/mL
plasma AUC∞ [2, 8]: 1198 ng·h/mL
plasma Cmax (± SE) [2, 8]: 395 ± 170 ng/mL and 395 ng/mL
plasma MRTlast [2, 8]: 1.58 h
plasma t1/2 [2, 8]: 2.12 h
plasma tmax [2, 8]: 0.25 h
plasma Average conc. [2, 9]: 395 ng/mL
plasma Conc., individual rabbit [2, 9]: 225 ng/mL and 565 ng/mL
plasma Average conc. [2, 10]: 337 ng/mL
plasma Conc., individual rabbit [2, 10]: 272 ng/mL and 401 ng/mL
plasma Average conc. [2, 11]: 295 ng/mL
plasma Conc., individual rabbit [2, 11]: 300 ng/mL and 289 ng/mL
plasma Average conc. [2, 12]: 206 ng/mL
plasma Conc., individual rabbit [2, 12]: 194 ng/mL and 217 ng/mL
plasma Average conc. [2, 13]: 110 ng/mL
plasma Conc., individual rabbit [2, 13]: 111 ng/mL and 108 ng/mL
plasma AUClast, dose normalized [2, 14]: 173 ± 13.8 kg·ng·h/mL/mg and 173 kg·ng·h/mL/mg
plasma AUC∞, dose normalized [2, 14]: 240 kg·ng·h/mL/mg
plasma AUClast (± SE) [2, 15]: 707 ± 53.1 ng·h/mL and 707 ng·h/mL
plasma AUC∞ [2, 15]: 746 ng·h/mL
plasma Cmax (± SE) [2, 15]: 25.3 ± 9.30 ng/mL and 25.3 ng/mL
plasma MRTlast [2, 15]: 19.1 h
plasma t1/2 [2, 15]: 16.5 h
plasma tmax [2, 15]: 1.00 h
plasma Average conc. [2, 16]: 25.3 ng/mL
plasma Conc., individual rabbit [2, 16]: 34.6 ng/mL and 16.0 ng/mL
plasma Average conc. [2, 17]: 24.4 ng/mL
plasma Conc., individual rabbit [2, 17]: 28.4 ng/mL and 20.4 ng/mL
plasma Average conc. [2, 18]: 23.1 ng/mL
plasma Conc., individual rabbit [2, 18]: 22.0 ng/mL and 24.1 ng/mL
plasma Average conc. [2, 19]: 12.3 ng/mL
plasma Conc., individual rabbit [2, 19]: 9.96 ng/mL and 14.7 ng/mL
plasma Average conc. [2, 20]: 3.63 ng/mL
plasma Conc., individual rabbit [2, 20]: 2.69 ng/mL and 4.57 ng/mL
plasma Average conc. [2, 21]: 1.65 ng/mL
plasma Conc., individual rabbit [2, 21]: 1.83 ng/mL and 1.46 ng/mL
plasma tmax ([2]; Group 5: intravitreal 2.5 mg/eye (~1.54 mg/kg), 40 mM phosphate buffer pH 4.0 suspension, listed as Compound 1 (free acid)): 1 h
plasma AUClast, dose normalized [2, 22]: 459 ± 34.5 kg·ng·h/mL/mg and 459 kg·ng·h/mL/mg
plasma AUC∞, dose normalized [2, 22]: 484 kg·ng·h/mL/mg

COC(=O)N[C@@H](Cc1ccccc1)C(=O)N[C@@H](Cc1ccc(NS(=O)(=O)O)cc1)c1csc(-c2cccs2)n1 [Compound 1]
rank order of exposure in aqueous and vitreous humor by route ([1]; intravitreal, topical ocular, subcutaneous): intravitreal>>topical ocular>subcutaneous
systemic exposure, as measured in plasma ([2]; all routes and formulations): confirmed
